Data as given in patent publication US11491245B2, “Gadolinium chelate compounds for use in magnetic resonance imaging” (BAYER PHARMA AKTIENGESELLSCHAFT, priority 2015, dated 2022).
“Also recorded” adds a separate entry of the source.

Key:
[1] = Relaxivity measurements at 3.0 T; format: physicochemical; conditions: 37° C., normalized to Gd, average ± standard deviation
Method in brief: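 T1 measured at 3.0 T and 37 °C by inversion recovery (TE 7.46 ms, TIs 50–4500 ms) in water and fresh citrated human plasma. Three concentrations between 0.05 and 2 mM; relaxivity from slope of relaxation rate versus Gd-normalised concentration.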

[2] = Excretion and residual organ gadolinium concentration; format: in vivo, male rats (Han-Wistar); conditions: male rats, 0.1 mmol Gd/kg i.v.
Method: The excretion and organ distribution of Example 3 were determined in male rats (Han-Wistar, 100-110 g, n=3). The compound was administered as a sterile aqueous solution (54 mmol Gd/L) as a bolus in the tail vein of the animals. The dose was 0.1 mmol Gd/kg. Urine was collected in the following time periods 0-1 h, 1-3 h, 3-6 h, 6-24 h, 1-2 d and 2-5 d post injection and feces 0-1 d, 1-2 d and 2-5 d post injection. As a control, 3 animals were treated in the same way with Gadovist®, a low molecular weight contrast agent. On day 7 the animals were sacrificed and the following organs were excised: blood, liver, kidney, spleen, heart, lung, brain, mesenteric lymph nodes, muscle, skin, stomach, gut, bone and bone marrow. The remaining carcass was freeze dried and ground to a fine powder. The Gd concentration in the organs and the carcass was determined by ICP-MS (ICP-MS Agilent 7500a, Waldbronn, Germany). The Example 3 is excreted quickly via the kidneys. After 3 h 95.8%±3.4% of the injected dose was found in urine and 96.9%±3.7% after 5 days. About 1.4%±0.6% was excreted via the feces. Less than 0.5% of the administered dose was present in the body 7 days after the injection. The individual organs contained less than 0.03% of the injected dose, except the kidney which is the excretion organ.

[3] = Contrast-enhanced magnetic resonance angiography (CE-MRA); format: in vivo, male New Zealand white rabbits; conditions: rabbits
Method: Reference compound 1 (Gadovist®), as an approved representative of the Gadolinium-based MRI contrast agents, was used in both dose protocols (100 μmol Gd/kg bw and 30 μmol Gd/kg bw) and compared to Example 3 (30 μmol Gd/kg bw).
The contrast-enhanced magnetic resonance angiography study was performed at a clinical 1.5 T Scanner (Magnetom Avanto, Siemens Healthcare, Erlangen, Germany). For optimal signal exploitation, a standard spine coil was used for the data acquisition. The study was done using male New Zealand white rabbits (weight 2.5-2.9 kg, n=6, Charles River Kisslegg). All animals were initially anesthetized using a body weight-adjusted intramuscular injection of a mixture (1+2) of xylazine hydrochloride (20 mg/mL, Rompun 2%, Bayer Vital GmbH, Leverkusen, Germany) and ketamine hydrochloride (100 mg/mL, Ketavet, Pfizer, Pharmacia GmbH, Berlin, Germany) using 1 mL/kg body weight. […]
Based on a localizer sequence oriented in coronal, axial, and sagittal directions, the anatomic course of the aorta was acquired. The time to peak was determined using a small intravenous test bolus (0.25 mL/2.5-2.7 kg or 0.3 mL/2.8-2.9 kg bw, Reference compound 1) and a 3D FLASH sequence (test bolus sequence: repetition time: 36.4 millisecond, echo time 1.45 millisecond, flip angle: 30 degree, spatial resolution: 1.0×0.8×17 mm). […]

[4] = Gadolinium release after the addition of zinc and phosphate (transmetallation); conditions: phosphate buffer pH 7.00, 2.5 mmol/L gadolinium complex, 2.5 mmol/L ZnCl2, 37° C., up to 72 h, FIG. 2
Method: The technique is based on measurement of the evolution of the water proton paramagnetic longitudinal relaxation rate in phosphate buffer (pH 7.00, 26 mmol/L, KH2PO4 Merck, Hessen, Germany) containing 2.5 mmol/L gadolinium complex and 2.5 mmol/L ZnCl2 Sigma-Aldrich, Munich, Germany). […] The mixture was vigorously stirred, and 300 μL were taken out for the relaxometric study at 0 min, 60 min, 120 min, 3 h, 4 h, 5 h, 24 h, 48 h and 72 h. The measurements were performed on a MiniSpec mq60 spectrometer (Bruker Analytik, Karlsruhe, Germany) at 60 MHz and 37° C.

CC(C(=O)NCC(=O)NCC(CNC(=O)CNC(=O)C(C)N1CCN(CC(=O)[O-])CCN(CC(=O)[O-])CCN(CC(=O)[O-])CC1)(CNC(=O)CNC(=O)C(C)N1CCN(CC(=O)[O-])CCN(CC(=O)[O-])CCN(CC(=O)[O-])CC1)CNC(=O)CNC(=O)C(C)N1CCN(CC(=O)[O-])CCN(CC(=O)[O-])CCN(CC(=O)[O-])CC1)N1CCN(CC(=O)[O-])CCN(CC(=O)[O-])CCN(CC(=O)[O-])CC1.[Gd+3].[Gd+3].[Gd+3].[Gd+3] (stereo not drawn) [Example 3, Tetragadolinium [4,10-bis(carboxylatomethyl)-7-{3,6,12,15-tetraoxo-16-[4,7,10-tris-(carboxylatomethyl)-1,4,7,10-tetraazacyclododecan-1-yl]-9,9-bis({[({2-[4,7,10-tris-(carboxylatomethyl)-1,4,7,10-tetraazacyclododecan-1-yl]propanoyl}amino)acetyl]-amino}methyl)-4,7,11,14-tetraazaheptadecan-2-yl}-1,4,7,10-tetraazacyclododecan-1-yl]acetate]
r1 human plasma ([1]; human plasma): 10.2 ± 0.2 L/mmol/s
r1 water ([1]; water): 9.2 ± 0.3 L/mmol/s
Feces excretion 0-1 d post injection [2]: 1.13 ± 0.62% Dose
Feces excretion 1-2 d post injection [2]: 0.10 ± 0.02% Dose
Feces excretion 2-5 d post injection [2]: 0.13 ± 0.01% Dose
Total recovery [2]: 98.8 ± 3.1% Dose
Urine excretion 0-1 h post injection [2]: 90.36 ± 4.4% Dose
Urine excretion 1-3 h post injection [2]: 5.43 ± 1.04% Dose
Urine excretion 1-2 d post injection [2]: 0.14 ± 0.01% Dose
Urine excretion 2-5 d post injection [2]: 0.34 ± 0.03% Dose
Urine excretion 3-6 h post injection [2]: 0.46 ± 0.38% Dose
Urine excretion 6-24 h post injection [2]: 0.17 ± 0.02% Dose
administered dose present in the body 7 days after the injection [2]: Less than 0.5%
excreted via the feces [2]: About 1.4%
Σ organs and carcass 7 d post injection [2]: 0.49 ± 0.01% Dose
injected dose in the individual organs (except the kidney) ([2]; 7 days): less than 0.03%
injected dose found in urine after 3 h ([2]; cumulative): 95.8%
injected dose found in urine after 5 days ([2]; cumulative): 96.9%
image quality of the low dose protocol ([3]; 30 μmol Gd/kg bw vs 30 μmol Gd/kg bw Reference compound 1, 1.5 T): significantly better than the low dose protocol of Reference compound 1
contrast enhancement of the low dose protocol ([3]; 30 μmol Gd/kg bw vs 100 μmol Gd/kg bw Reference compound 1, 1.5 T): comparable to that of the standard dose of Reference compound 1
stability against transmetallation (relative longitudinal relaxation rate R1p(t)/R1p(0) versus time) [4]: comparable to the high stability macrocyclic Reference compound 1 (Gadovist®); also recorded: comparable to the high stability of Reference compound 1 (Gadovist®)
